Test results from patent US7001896B2, “Compositions for treating diabetes” (Otsuka Pharmaceutical Factory, Inc., priority 2000, dated 2006).

Test system: New Zealand white rabbits given high-fat, high-sugar feed
Test: Pharmacological Test Example 1: serum glucose level in rabbits fed high-fat, high-sugar feed
Format: in vivo
Conditions: for serum glucose level (mean±S.D.): Group 2 (n = 6), high-fat, high-sugar feed containing 1% Compound A from week 4, fasted overnight, feed 35 g/kg/day
Text: In this test, New Zealand white rabbits each weighing about 2 kg were divided into three groups, i.e., Group 1 consisting of 5 rabbits, Group 2 consisting of 6 rabbits, and Group 3 consisting of 6 rabbits.
The Group 1 rabbits were fed on an ordinary feed (Standard laboratory chow for rabbits, product of Shanghai Shengwang Experimental Animal Ranch (P.R. China)) (Normal Group).
The Group 2 rabbits were given for 4 weeks a high-fat, high-sugar feed prepared by adding 10% lard and 37% sucrose to the above-described standard laboratory chow. After confirming increases in blood glucose level, these rabbits were fed a high-fat, high-sugar feed as described above but containing 1% of the active ingredient (Compound A) of the pharmaceutical composition of the invention for treating diabetes (Experimental Group).
The Group 3 rabbits were fed the high-fat, high-sugar feed prepared by adding 10% lard and 37% sucrose to the standard laboratory chow described above (Control Group).
The rabbits of each group were allowed to eat the respective feeds ad libitum. In all groups, the amount of feed given was 35 g/kg/day per rabbit. The test period (period of feeding) was 24 weeks.
At the beginning of the test (0 week) and 4 weeks, 8 weeks, 12 weeks, 16 weeks, 20 weeks and 24 weeks later, the rabbits of each group fasted overnight, and blood samples were then collected from the auricular artery and assayed to measure the serum glucose level (mg/dl) using a commercially available glucose determination kit for enzymatic assaying (Glucose determination kit (Glucose oxidase-peroxidase method), product of Shanghai Rongsheng Biotech Inc. (P.R China).

With CCOP(=O)(Cc1ccc(C(=O)Nc2ccc(Br)cc2C#N)cc1)OCC [Compound A, 4-diethoxyphosphinoylmethyl-N-(4-bromo-2-cyanophenyl)benzamide] the “serum glucose level (mean±S.D.)” value (8 weeks later) was 124.7 ± 29.2 mg/dL, the “serum glucose level (mean±S.D.)” value (12 weeks later) was 84.7 ± 19.5 mg/dL and the “serum glucose level (mean±S.D.)” value (16 weeks later) was 85.3 ± 12.8 mg/dL. For the same molecule, the “serum glucose level (mean±S.D.)” value (20 weeks later) was 90.0 ± 15.7 mg/dL, the “serum glucose level (mean±S.D.)” value (24 weeks later) was 73.6 ± 6.1 mg/dL and the “change in blood glucose level (in words)” value (Group 2 given high-fat, high-sugar feed containing Compound A from 4 weeks after the beginning of the test, 24-week test, versus Control Group 3 with continuous increase) was “significant decrease in blood glucose level over time”.
